# Assays:
# Assay in all cases: radiometric filter-binding kinase assay, Kinase HotSpot
# Settings in all cases: compound 0.5 µM; ATP 10 µM
# ABL2 (human) = ABL2 (human) (UniProt P42684)
# ACVRL1 (human) = ACVRL1 (human) (UniProt P37023)
# CAMK1D (human) = CAMK1D (human) (UniProt Q8IU85)
# CDC42BPB (human) = CDC42BPB (human) (UniProt Q9Y5S2)
# CDK7 CCNH MNAT1 (human) = CDK7 CCNH MNAT1 (human) (UniProt P50613+P51948+P51946)
# CDK9 CCNK (human) = CDK9 CCNK (human) (UniProt O75909+P50750)
# CDK9 CCNT1 (human) = CDK9 CCNT1 (human) (UniProt P50750+O60563)
# CSNK1G3 (human) = CSNK1G3 (human) (UniProt Q9Y6M4)
# DAPK2 (human) = DAPK2 (human) (UniProt Q9UIK4)
# DSTYK (human) = DSTYK (human) (UniProt Q6XUX3)
# DYRK1B (human) = DYRK1B (human) (UniProt Q9Y463)
# DYRK4 (human) = DYRK4 (human) (UniProt Q9NR20)
# FGFR4 (human) = FGFR4 (human) (UniProt P22455)
# FLT3 (human) = FLT3 (human) (UniProt P36888)
# GRK5 (human) = GRK5 (human) (UniProt P34947)
# GSK3B (human) = GSK3B (human) (UniProt P49841)
# JAK2 JH1 JH2 (human) = JAK2 JH1 JH2 (human) (UniProt O60674)
# JAK3 JH1 JH2 (human) = JAK3 JH1 JH2 (human) (UniProt P52333)
# LIMK1 (human) = LIMK1 (human) (UniProt P53667)
# MAP2K1 (human) = MAP2K1 (human) (UniProt Q02750)
# MAP3K10 (human) = MAP3K10 (human) (UniProt Q02779)
# MAPKAPK5 (human) = MAPKAPK5 (human) (UniProt Q8IW41)
# MARK1 (human) = MARK1 (human) (UniProt Q9P0L2)
# MERTK (human) = MERTK (human) (UniProt Q12866)
# NTRK2 (human) = NTRK2 (human) (UniProt Q16620)
# NUAK1 (human) = NUAK1 (human) (UniProt O60285)
# PAK1 (human) = PAK1 (human) (UniProt Q13153)
# PBK (human) = PBK (human) (UniProt Q96KB5)
# PDPK1 (human) = PDPK1 (human) (UniProt O15530)
# PLK3 (human) = PLK3 (human) (UniProt Q9H4B4)
# PNCK (human) = PNCK (human) (UniProt Q6P2M8)
# PRKCD (human) = PRKCD (human) (UniProt Q05655)
# PRKCE (human) = PRKCE (human) (UniProt Q02156)
# PRKG2 (human) = PRKG2 (human) (UniProt Q13237)
# SRPK1 (human) = SRPK1 (human) (UniProt Q96SB4)
# TAOK2 (human) = TAOK2 (human) (UniProt Q9UL54)
# TGFBR2 (human) = TGFBR2 (human) (UniProt P37173)
# [1] = biological target: TYK2 JH1 catalytic (human) (UniProt P29597)
# YES1 (human) = YES1 (human) (UniProt P07947)
# PAK2 (human) = PAK2 (human) (UniProt Q13177)
# TAOK2 (human), sequence (Q9UL54 whole entry, looked up): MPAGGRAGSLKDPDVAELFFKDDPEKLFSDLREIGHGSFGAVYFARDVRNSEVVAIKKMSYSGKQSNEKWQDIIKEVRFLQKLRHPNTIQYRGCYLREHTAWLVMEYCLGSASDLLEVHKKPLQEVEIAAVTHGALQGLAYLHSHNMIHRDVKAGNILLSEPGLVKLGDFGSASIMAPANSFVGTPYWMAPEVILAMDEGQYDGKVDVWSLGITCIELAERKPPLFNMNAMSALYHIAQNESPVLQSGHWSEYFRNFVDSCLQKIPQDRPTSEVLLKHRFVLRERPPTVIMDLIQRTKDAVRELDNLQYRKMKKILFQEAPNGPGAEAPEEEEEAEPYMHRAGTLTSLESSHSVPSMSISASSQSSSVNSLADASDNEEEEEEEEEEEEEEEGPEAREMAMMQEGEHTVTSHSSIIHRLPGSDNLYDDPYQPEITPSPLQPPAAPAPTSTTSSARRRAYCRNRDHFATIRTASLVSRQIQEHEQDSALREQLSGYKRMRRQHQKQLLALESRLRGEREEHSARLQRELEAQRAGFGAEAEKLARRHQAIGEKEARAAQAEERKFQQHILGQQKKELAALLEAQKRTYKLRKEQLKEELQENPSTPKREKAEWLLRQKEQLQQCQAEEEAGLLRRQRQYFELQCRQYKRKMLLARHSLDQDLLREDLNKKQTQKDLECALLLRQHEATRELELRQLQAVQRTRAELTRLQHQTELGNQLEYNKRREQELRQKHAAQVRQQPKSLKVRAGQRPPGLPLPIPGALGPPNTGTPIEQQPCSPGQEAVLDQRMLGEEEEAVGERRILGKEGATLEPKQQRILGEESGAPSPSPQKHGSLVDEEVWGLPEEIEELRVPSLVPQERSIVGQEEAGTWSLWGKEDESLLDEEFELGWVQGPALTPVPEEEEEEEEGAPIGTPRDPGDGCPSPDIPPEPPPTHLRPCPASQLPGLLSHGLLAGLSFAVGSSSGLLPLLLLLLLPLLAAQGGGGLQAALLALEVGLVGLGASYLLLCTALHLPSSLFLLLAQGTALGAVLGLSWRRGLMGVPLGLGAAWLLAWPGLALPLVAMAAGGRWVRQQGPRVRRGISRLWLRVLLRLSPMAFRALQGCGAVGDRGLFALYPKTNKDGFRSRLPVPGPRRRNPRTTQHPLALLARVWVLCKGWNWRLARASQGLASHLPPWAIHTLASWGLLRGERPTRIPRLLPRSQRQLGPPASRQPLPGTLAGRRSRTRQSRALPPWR
# LIMK1 (human), sequence (P53667 whole entry, looked up): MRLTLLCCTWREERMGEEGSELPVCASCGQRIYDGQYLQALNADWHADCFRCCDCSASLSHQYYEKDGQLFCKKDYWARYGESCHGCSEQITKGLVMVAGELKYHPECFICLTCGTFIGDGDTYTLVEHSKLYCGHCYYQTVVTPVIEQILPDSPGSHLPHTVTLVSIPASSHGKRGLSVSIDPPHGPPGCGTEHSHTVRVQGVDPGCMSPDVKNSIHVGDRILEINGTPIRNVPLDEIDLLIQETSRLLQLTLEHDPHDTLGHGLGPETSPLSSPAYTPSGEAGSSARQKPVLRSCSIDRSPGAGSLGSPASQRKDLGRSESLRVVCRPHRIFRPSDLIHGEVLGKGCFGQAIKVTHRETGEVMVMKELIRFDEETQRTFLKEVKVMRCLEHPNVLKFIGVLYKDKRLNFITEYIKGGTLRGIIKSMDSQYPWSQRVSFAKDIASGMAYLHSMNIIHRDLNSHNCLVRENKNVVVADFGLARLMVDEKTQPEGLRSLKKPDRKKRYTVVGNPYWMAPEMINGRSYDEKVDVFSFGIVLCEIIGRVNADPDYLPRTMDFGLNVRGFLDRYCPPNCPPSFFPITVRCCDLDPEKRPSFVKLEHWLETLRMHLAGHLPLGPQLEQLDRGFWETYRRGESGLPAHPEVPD
# MAP2K1 (human), sequence (Q02750 whole entry, looked up): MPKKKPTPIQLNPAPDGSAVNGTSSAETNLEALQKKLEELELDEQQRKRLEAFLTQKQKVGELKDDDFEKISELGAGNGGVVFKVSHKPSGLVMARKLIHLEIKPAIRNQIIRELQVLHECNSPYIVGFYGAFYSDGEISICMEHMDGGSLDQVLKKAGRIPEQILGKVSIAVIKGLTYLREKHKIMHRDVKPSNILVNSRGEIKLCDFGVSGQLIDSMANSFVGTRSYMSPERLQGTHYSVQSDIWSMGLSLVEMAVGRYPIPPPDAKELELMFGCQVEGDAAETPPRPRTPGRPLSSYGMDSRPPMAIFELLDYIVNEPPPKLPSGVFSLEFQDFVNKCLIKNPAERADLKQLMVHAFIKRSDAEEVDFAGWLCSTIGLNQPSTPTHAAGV
# NUAK1 (human), sequence (O60285 whole entry, looked up): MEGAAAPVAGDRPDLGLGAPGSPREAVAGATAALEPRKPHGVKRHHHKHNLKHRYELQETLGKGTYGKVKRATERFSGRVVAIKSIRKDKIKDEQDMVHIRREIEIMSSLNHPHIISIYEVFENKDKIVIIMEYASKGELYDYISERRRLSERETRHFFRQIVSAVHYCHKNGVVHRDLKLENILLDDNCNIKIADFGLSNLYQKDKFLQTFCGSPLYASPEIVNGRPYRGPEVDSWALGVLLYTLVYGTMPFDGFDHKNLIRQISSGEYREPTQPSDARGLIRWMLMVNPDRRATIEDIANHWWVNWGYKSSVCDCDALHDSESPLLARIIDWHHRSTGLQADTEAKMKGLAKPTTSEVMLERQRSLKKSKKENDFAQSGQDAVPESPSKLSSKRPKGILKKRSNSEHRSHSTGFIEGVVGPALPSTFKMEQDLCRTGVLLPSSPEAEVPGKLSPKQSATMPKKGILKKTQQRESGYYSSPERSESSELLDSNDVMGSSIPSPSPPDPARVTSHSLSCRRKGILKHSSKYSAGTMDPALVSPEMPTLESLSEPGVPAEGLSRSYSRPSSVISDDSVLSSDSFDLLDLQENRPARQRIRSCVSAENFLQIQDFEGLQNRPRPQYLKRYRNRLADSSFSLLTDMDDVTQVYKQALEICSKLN
# CSNK1G3 (human), sequence (Q9Y6M4 whole entry, looked up): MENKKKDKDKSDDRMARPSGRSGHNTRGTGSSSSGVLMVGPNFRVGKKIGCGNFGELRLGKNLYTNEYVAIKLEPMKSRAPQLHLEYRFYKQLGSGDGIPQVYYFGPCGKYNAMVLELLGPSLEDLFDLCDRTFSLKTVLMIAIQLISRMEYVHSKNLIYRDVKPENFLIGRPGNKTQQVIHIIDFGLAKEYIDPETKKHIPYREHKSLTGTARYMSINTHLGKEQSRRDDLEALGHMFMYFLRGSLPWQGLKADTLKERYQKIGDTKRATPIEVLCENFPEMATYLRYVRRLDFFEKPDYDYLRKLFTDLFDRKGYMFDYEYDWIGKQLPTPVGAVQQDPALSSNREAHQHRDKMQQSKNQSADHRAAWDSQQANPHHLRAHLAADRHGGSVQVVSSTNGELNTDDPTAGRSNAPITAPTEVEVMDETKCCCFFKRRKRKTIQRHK
# MAPKAPK5 (human), sequence (Q8IW41 whole entry, looked up): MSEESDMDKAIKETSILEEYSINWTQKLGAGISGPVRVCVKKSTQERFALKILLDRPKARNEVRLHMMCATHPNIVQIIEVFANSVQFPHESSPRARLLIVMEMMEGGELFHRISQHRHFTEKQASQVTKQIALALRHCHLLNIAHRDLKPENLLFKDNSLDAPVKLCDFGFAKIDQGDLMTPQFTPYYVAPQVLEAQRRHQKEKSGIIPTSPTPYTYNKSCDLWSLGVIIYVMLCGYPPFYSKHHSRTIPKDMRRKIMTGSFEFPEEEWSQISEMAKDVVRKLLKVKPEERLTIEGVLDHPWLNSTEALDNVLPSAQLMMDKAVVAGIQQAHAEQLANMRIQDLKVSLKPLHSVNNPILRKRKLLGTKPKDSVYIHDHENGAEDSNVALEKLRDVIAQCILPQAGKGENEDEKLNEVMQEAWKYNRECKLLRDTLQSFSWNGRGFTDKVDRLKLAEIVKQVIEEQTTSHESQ
# PLK3 (human), sequence (Q9H4B4 whole entry, looked up): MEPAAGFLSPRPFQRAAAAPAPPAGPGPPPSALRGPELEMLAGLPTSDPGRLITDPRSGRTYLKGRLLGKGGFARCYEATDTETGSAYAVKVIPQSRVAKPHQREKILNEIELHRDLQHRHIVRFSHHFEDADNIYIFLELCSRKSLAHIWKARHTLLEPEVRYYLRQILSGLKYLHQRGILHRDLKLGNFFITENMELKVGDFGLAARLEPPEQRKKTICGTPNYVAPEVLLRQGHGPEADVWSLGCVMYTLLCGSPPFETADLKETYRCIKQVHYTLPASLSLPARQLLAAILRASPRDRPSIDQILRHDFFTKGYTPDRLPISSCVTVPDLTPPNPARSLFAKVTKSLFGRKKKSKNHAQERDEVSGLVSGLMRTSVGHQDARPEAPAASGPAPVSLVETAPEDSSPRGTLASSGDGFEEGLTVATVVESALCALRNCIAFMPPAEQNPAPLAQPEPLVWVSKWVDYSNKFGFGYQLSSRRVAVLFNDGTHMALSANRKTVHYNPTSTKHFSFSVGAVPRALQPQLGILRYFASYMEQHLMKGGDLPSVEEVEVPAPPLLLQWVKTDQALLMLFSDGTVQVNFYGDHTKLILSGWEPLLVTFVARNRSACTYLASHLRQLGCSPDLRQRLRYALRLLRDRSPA
# DYRK4 (human), sequence (Q9NR20 whole entry, looked up): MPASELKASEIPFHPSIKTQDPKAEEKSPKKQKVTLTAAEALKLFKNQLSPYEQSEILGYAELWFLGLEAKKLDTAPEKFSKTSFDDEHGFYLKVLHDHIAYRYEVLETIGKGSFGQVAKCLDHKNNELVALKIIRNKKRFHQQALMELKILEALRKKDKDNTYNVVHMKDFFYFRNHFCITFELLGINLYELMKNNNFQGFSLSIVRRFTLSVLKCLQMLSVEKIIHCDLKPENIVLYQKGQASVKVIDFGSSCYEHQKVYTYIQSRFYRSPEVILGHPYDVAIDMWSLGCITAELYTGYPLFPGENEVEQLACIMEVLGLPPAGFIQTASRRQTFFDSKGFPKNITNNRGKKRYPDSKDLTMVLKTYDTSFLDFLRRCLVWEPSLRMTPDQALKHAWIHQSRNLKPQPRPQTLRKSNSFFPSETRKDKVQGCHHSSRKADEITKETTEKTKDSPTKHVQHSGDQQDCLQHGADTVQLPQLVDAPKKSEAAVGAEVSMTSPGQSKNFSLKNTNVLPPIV
SMILES,residual activity (ABL2 (human)),residual activity (ACVRL1 (human)),residual activity (CAMK1D (human)),residual activity (CDK7 CCNH MNAT1 (human)),residual activity (CDK9 CCNK (human)),residual activity (CDK9 CCNT1 (human)),residual activity (DAPK2 (human)),residual activity (DSTYK (human)),residual activity (DYRK1B (human)),residual activity (DYRK4 (human)),residual activity (FGFR4 (human)),residual activity (FLT3 (human)),residual activity (GRK5 (human)),residual activity (GSK3B (human)),residual activity (JAK2 JH1 JH2 (human)),residual activity (JAK3 JH1 JH2 (human)),residual activity (LIMK1 (human)),residual activity (MAP2K1 (human)),residual activity (MAP3K10 (human)),residual activity (MAPKAPK5 (human)),also measured
CCN(CC)C(=O)c1ccc(Nc2nc(OCC3CCCCC3)c3nc[nH]c3n2)cc1,67.8%,106%,101%,87.6%,72.6%,88.8%,91.7%,106%,90.2%,93.6%,94.4%,10.3%,98.8%,85%,4.21%,6.39%,35.2%,94.1%,15.2%,87.8%,residual activity (CDC42BPB (human)): 99.3%; residual activity (CSNK1G3 (human)): 61.7%; residual activity (MARK1 (human)): 82.7%; residual activity (MERTK (human)): 71.6%; residual activity (NTRK2 (human)): 54.3%; residual activity (NUAK1 (human)): 3.67%; residual activity (PAK1 (human)): 93.8%; residual activity (PBK (human)): 116%; residual activity (PDPK1 (human)): 69.1%; residual activity (PLK3 (human)): 98.1%; residual activity (PNCK (human)): 117%; residual activity (PRKCD (human)): 76.7%; residual activity (PRKCE (human)): 76.6%; residual activity (PRKG2 (human)): 80%; residual activity (SRPK1 (human)): 91.7%; residual activity (TAOK2 (human)): 66%; residual activity (TGFBR2 (human)): 75.4%; residual activity [1]: 4.96%; residual activity (YES1 (human)): 15.4%
CC(=O)c1ccc(N2CCOCC2)cc1O,104%,103%,96.9%,105%,106%,100%,106%,95.3%,99.9%,95.6%,108%,102%,108%,122%,93.6%,104%,93.6%,95.2%,104%,96.9%,residual activity (CDC42BPB (human)): 87.2%; residual activity (CSNK1G3 (human)): 101%; residual activity (MARK1 (human)): 96.7%; residual activity (MERTK (human)): 101%; residual activity (NTRK2 (human)): 92.1%; residual activity (NUAK1 (human)): 92.8%; residual activity (PAK1 (human)): 93.7%; residual activity (PAK2 (human)): 98.8%; residual activity (PBK (human)): 113%; residual activity (PDPK1 (human)): 111%; residual activity (PLK3 (human)): 98.1%; residual activity (PNCK (human)): 103%; residual activity (PRKCD (human)): 97.4%; residual activity (PRKCE (human)): 93.4%; residual activity (PRKG2 (human)): 107%; residual activity (SRPK1 (human)): 90.7%; residual activity (TAOK2 (human)): 107%; residual activity (TGFBR2 (human)): 132%; residual activity [1]: 110%; residual activity (YES1 (human)): 100%
CC#CC(=O)Nc1cc2c(Nc3ccc(F)c(Cl)c3)ncnc2cn1,89.4%,101%,107%,101%,98.4%,90.6%,105%,91.1%,103%,98%,102%,92.1%,105%,93%,97.4%,-0.181%,84.2%,95.3%,98.9%,96.3%,residual activity (CDC42BPB (human)): 96.4%; residual activity (CSNK1G3 (human)): 111%; residual activity (MARK1 (human)): 98.2%; residual activity (MERTK (human)): 84.5%; residual activity (NTRK2 (human)): 100%; residual activity (NUAK1 (human)): 98.1%; residual activity (PAK1 (human)): 94.5%; residual activity (PAK2 (human)): 105%; residual activity (PBK (human)): 99.9%; residual activity (PDPK1 (human)): 99.6%; residual activity (PLK3 (human)): 100%; residual activity (PNCK (human)): 99.4%; residual activity (PRKCD (human)): 99.8%; residual activity (PRKCE (human)): 88.3%; residual activity (PRKG2 (human)): 105%; residual activity (SRPK1 (human)): 94.8%; residual activity (TAOK2 (human)): 106%; residual activity (TGFBR2 (human)): 123%; residual activity [1]: 106%; residual activity (YES1 (human)): 82.3%
O=S(=O)(c1cccc2cnccc12)N1CCCNCC1,87.6%,111%,91.5%,95.5%,86%,80.7%,83.6%,90.4%,96.3%,97.9%,82.8%,103%,109%,102%,107%,120%,100%,83%,88.3%,72.6%,residual activity (CSNK1G3 (human)): 85%; residual activity (MARK1 (human)): 98.6%; residual activity (MERTK (human)): 88.3%; residual activity (NTRK2 (human)): 102%; residual activity (NUAK1 (human)): 73.2%; residual activity (PAK1 (human)): 94.6%; residual activity (PBK (human)): 100%; residual activity (PDPK1 (human)): 91.3%; residual activity (PLK3 (human)): 102%; residual activity (PNCK (human)): 91.6%; residual activity (PRKCD (human)): 84.7%; residual activity (PRKCE (human)): 76.5%; residual activity (PRKG2 (human)): 98.9%; residual activity (SRPK1 (human)): 92.6%; residual activity (TAOK2 (human)): 87.3%; residual activity (TGFBR2 (human)): 97%; residual activity [1]: 81.6%; residual activity (YES1 (human)): 96.5%
COc1ccc(COc2ccc(Cc3cnc(N)nc3N)cc2OC)cc1,107%,101%,93%,100%,102%,92.5%,95.3%,95%,104%,101%,99.7%,103%,109%,97.8%,89.2%,95.9%,94.5%,98.6%,96.4%,87.5%,residual activity (CDC42BPB (human)): 96.9%; residual activity (MARK1 (human)): 103%; residual activity (MERTK (human)): 90.3%; residual activity (NTRK2 (human)): 31.2%; residual activity (NUAK1 (human)): 106%; residual activity (PAK1 (human)): 93.4%; residual activity (PAK2 (human)): 95.3%; residual activity (PBK (human)): 99.4%; residual activity (PDPK1 (human)): 89.4%; residual activity (PLK3 (human)): 95.9%; residual activity (PNCK (human)): 98.4%; residual activity (PRKCD (human)): 87.8%; residual activity (PRKCE (human)): 95.7%; residual activity (PRKG2 (human)): 104%; residual activity (SRPK1 (human)): 90.4%; residual activity (TAOK2 (human)): 94.7%; residual activity (TGFBR2 (human)): 127%; residual activity [1]: 97.6%; residual activity (YES1 (human)): 94.8%

# Reference: the kinase profiling compilation of Christmann-Franck et al. (2016)
